Measured values published in PubChem BioAssay AID1053157 (Broad Institute, 2014).

How the values were obtained:
Assay in all cases: chemoproteomic target identification by competition binding – cell lysate, SILAC, HepG2 extract, LC-MS/MS, mechanism study for Trib1 inducer project, late-stage follow-up (AID 1053157)
Protein zwilch homolog = Protein zwilch homolog (UniProt Q9H900)
[1] = target: NADH dehydrogenase [ubiquinone] 1 alpha subcomplex subunit 6 (Homo sapiens) (UniProt P56556)
Ran-binding protein 6 = Ran-binding protein 6 (UniProt O60518)
[2] = target: Ubiquitin carboxyl-terminal hydrolase 34 (UniProt Q70CQ2)
Sequence of Ubiquitin carboxyl-terminal hydrolase 34 (Q70CQ2 whole entry, looked up): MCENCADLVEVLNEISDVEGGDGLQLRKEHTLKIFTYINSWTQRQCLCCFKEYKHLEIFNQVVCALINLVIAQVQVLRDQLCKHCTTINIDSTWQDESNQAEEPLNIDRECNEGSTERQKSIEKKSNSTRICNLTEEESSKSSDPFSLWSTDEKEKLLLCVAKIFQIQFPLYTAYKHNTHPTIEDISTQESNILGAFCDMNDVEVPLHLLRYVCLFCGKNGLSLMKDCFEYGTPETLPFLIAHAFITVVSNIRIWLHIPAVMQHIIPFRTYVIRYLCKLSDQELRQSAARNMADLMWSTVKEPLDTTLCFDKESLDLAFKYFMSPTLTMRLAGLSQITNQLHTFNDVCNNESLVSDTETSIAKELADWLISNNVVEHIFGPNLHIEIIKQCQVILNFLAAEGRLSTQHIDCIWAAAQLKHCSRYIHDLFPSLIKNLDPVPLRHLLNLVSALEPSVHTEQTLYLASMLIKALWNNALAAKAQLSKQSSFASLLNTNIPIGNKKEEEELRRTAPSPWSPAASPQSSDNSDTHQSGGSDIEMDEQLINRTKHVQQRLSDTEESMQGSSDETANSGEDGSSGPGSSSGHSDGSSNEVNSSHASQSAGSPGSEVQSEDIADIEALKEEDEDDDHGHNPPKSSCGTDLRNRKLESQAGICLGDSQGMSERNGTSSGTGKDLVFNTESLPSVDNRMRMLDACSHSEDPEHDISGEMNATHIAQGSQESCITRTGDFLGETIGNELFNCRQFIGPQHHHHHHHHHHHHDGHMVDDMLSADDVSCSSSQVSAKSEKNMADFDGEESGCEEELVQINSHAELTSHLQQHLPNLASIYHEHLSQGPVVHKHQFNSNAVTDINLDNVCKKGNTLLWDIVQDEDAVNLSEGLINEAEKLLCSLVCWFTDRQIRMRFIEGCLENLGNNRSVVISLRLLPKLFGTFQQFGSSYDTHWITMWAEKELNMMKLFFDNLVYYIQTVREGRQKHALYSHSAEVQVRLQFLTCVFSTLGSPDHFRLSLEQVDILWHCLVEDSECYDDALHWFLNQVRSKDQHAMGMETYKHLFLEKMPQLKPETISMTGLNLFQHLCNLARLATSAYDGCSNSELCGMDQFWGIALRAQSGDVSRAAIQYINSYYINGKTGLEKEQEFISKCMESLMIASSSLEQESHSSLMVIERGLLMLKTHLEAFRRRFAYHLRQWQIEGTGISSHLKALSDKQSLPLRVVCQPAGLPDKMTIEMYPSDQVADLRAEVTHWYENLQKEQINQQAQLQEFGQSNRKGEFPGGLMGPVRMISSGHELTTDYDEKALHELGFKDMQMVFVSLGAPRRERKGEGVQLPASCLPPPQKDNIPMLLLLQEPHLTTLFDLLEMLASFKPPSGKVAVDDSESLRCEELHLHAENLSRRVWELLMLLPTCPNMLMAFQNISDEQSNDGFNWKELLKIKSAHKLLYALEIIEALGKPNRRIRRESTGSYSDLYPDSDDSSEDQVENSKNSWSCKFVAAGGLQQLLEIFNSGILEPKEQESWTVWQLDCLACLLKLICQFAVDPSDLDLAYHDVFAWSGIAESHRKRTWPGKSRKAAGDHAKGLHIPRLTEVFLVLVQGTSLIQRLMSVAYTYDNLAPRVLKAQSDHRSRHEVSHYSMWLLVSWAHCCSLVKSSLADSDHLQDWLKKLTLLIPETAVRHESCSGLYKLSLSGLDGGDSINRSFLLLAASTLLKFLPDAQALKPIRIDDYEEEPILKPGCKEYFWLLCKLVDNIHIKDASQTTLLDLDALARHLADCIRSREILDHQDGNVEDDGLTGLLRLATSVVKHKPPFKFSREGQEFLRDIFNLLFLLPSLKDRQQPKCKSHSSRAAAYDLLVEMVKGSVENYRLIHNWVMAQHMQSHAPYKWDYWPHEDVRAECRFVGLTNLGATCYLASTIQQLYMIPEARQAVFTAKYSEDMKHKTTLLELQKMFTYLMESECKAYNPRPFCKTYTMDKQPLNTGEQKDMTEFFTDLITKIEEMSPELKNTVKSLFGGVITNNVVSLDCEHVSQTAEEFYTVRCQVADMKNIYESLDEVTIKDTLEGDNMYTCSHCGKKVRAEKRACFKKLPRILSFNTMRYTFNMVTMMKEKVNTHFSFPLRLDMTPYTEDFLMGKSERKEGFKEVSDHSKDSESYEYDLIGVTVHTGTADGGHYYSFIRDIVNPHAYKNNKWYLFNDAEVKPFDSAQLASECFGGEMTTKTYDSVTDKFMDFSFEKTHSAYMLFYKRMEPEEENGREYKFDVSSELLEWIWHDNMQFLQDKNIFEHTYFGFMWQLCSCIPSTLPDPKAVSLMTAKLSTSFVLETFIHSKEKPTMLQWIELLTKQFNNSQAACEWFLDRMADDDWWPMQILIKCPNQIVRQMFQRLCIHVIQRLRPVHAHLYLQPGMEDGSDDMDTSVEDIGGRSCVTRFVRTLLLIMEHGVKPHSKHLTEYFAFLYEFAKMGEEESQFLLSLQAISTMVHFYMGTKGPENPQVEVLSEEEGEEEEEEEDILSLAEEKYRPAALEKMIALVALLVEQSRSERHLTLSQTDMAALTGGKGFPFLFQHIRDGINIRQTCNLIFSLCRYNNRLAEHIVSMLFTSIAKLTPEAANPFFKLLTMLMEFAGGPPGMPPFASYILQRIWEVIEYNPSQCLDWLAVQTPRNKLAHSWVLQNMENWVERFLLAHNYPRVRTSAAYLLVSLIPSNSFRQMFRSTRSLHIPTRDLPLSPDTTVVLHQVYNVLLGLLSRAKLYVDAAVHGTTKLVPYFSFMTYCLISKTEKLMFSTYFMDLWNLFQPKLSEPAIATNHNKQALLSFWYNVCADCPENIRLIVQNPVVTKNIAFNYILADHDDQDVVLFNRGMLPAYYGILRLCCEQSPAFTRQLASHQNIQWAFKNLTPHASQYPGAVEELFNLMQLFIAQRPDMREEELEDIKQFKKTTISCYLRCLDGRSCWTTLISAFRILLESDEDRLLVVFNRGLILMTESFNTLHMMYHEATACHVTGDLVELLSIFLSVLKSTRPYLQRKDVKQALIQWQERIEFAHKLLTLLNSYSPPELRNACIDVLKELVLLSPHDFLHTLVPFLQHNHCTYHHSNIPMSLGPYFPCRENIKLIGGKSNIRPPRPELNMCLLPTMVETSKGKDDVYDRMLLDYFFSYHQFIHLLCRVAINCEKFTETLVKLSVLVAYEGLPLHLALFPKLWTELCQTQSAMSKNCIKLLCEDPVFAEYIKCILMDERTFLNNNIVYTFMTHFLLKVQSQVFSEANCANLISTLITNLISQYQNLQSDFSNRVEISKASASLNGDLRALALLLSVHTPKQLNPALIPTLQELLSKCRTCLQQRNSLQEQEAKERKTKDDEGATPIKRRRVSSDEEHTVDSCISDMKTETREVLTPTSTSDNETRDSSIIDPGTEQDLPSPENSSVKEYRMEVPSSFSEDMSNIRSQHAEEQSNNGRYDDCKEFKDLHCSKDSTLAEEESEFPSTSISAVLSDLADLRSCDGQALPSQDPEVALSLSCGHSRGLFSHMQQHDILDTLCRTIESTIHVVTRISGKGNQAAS

[3] = target: Ferroptosis suppressor protein 1 (Homo sapiens) (UniProt Q9BRQ8); conditions: Apoptosis-inducing factor
Sequence of Ferroptosis suppressor protein 1 (Homo sapiens) (Q9BRQ8 whole entry, looked up): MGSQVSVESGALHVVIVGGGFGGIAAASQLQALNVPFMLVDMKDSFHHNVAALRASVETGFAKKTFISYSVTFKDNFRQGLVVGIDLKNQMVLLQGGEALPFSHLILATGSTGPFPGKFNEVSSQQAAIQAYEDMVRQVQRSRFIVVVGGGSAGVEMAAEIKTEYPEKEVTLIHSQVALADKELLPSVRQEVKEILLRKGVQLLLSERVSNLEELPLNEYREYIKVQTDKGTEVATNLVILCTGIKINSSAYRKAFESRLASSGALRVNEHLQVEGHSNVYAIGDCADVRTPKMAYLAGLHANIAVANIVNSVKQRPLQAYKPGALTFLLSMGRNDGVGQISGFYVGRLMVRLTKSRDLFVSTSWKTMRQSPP

Prenylcysteine oxidase 1 = Prenylcysteine oxidase 1 (UniProt Q9UHG3)

Sequence of NADH dehydrogenase [ubiquinone] 1 alpha subcomplex subunit 6 (Homo sapiens) (P56556 whole entry, looked up, one chain of several): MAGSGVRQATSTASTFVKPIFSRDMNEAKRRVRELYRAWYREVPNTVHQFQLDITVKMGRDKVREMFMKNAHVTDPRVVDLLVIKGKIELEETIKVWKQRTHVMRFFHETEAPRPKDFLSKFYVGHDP
Sequence of Protein zwilch homolog (Q9H900 whole entry, looked up): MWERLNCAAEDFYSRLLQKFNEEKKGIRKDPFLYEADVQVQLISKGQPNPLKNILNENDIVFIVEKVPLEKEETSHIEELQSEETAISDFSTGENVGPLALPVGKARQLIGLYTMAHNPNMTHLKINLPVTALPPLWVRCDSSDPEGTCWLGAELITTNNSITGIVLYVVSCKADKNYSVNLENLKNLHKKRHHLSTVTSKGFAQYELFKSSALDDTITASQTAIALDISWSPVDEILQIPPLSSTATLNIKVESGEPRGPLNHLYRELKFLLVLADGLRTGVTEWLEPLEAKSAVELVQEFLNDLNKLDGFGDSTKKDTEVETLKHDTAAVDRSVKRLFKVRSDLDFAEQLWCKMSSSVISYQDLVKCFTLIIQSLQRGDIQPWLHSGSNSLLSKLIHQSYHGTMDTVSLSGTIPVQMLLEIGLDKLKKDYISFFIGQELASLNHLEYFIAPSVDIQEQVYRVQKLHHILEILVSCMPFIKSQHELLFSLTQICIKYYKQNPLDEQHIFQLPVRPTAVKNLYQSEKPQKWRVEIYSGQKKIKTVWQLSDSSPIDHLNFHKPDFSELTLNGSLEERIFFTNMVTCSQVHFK

CN1C(=O)c2cc(NC(=O)c3ccc(C(F)(F)F)cc3)ccc2OC[C@@H]2O[C@H](CC(=O)NC3Cc4ccccc4C3)CC[C@@H]21 showed a Kd (Protein zwilch homolog) of 18.4 µM, a Kd [1] of 29.3 µM and a Kd (Ran-binding protein 6) of 25.6 µM. For the same compound, the Kd [2] was 25.7 µM, the Kd [3] was 26.7 µM and the Kd (Prenylcysteine oxidase 1) was 10.2 µM.
